This assay concerns the target T1, HDAC6 (Homo sapiens, UniProt Q9UBN7).
T1 sequence (Q9UBN7 1-1215): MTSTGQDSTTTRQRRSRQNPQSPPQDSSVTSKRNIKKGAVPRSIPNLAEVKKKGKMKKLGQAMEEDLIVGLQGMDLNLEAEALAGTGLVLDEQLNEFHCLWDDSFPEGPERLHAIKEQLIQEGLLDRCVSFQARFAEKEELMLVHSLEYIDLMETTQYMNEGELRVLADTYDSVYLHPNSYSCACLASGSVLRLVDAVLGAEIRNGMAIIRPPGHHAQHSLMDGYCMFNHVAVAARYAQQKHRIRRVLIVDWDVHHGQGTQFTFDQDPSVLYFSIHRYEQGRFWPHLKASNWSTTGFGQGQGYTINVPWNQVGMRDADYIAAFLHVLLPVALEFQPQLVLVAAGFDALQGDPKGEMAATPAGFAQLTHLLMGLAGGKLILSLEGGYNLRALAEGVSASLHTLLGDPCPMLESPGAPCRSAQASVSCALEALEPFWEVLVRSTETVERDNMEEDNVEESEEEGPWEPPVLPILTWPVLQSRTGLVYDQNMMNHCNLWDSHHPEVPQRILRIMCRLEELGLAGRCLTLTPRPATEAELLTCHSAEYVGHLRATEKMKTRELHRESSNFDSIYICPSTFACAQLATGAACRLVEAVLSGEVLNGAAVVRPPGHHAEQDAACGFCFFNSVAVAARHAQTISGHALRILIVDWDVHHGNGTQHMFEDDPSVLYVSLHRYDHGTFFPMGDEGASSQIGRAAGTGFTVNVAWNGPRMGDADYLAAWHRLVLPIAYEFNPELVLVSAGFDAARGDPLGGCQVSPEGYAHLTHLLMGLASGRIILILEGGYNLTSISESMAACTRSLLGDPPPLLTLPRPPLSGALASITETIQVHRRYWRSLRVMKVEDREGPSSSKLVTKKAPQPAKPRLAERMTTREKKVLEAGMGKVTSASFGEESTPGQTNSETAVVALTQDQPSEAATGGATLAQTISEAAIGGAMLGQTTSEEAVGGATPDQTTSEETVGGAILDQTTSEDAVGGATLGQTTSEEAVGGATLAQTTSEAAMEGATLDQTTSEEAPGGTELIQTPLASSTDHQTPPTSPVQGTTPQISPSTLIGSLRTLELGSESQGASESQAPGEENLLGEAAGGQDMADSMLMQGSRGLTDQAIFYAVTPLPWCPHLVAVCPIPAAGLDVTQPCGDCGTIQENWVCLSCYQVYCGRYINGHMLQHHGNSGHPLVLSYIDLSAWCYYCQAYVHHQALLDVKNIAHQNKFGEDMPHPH
Nature of the assay: Human HDAC enzyme inhibitor Fluor-de-Lys assay, HDAC6. It is filed as biochemical. The note with it: 1.3 nM enzyme, 2.5 μM substrate BML-KI104, 3 h pre-incubation, 60 min reaction; read-out: HDAC6_IC50. The source says:
Recombinant human HDAC8 (catalog number BML-SE145-0100) and HDAC10 (catalog number BML-SE559-0050) enzymes, HDAC substrates BML-KI104 and BML-KI178, and HDAC developer solutions BML-KI105 and BML-KI176 were purchased from Enzo Life Sciences (Farmingdale, NY). Recombinant human HDAC5 and HDAC11 were purchased from BPS Bioscience (San Diego, CA)(catalog numbers 50045 and 50021). Substrate Boc-Lys(TFA)-AMC was obtained from Bachem (Bupendorf, Switzerland) (catalog number 1-1985). HDAC inhibitor suberoylanilide hydroxamic acid (SAHA) was obtained from Indofine (Hillsborough Township, NJ) and trichostatin A (TSA) was obtained from Sigma-Aldrich (St. Louis, MO). […] HEPES pH 8.0 was obtained from Boston BioProducts (Ashland, MA), Tween-20 from Fisher Scientific (Hampton, NH)(catalog number BP337), TCEP from Calbiochem and 7.5% bovine serum albumin (BSA) from Life Technologies (Carlsbad, CA) (catalog number 15260037). 384-well, black assay plates were obtained from Corning (Corning, NY) (catalog number 3575).
The histone deacetylase activities of HDAC1, HDAC2, HDAC3, HDAC6, and HDAC8 were measured in modified Fluor-de-Lys assays in 384-well format. In this assay, HDAC enzymes are initially incubated with an ε-acetyl (or -trifluoroacetyl)-L-lysine-containing substrate with a C-terminal amide having aminomethylcoumarin as the amine component. HDACs cleave the ε-acetyl group, rendering the resulting product susceptible to AMC cleavage by trypsin. The released AMC is then detected by its fluorescence.
The HDAC 1, 2 assays employed buffer A, which contained 20 mM HEPES, pH 8.0, 1 mM MgCl2, 137 mM NaCl, 2.7 mM KCl, 0.05% BSA. The HDAC3/SMRT assay employed buffer B, consisting of 20 mM HEPES, pH 8.0, 1 mM MgCl2, 50 mM NaCl, 2.7 mM KCl, 0.05% BSA, 0.005% Tween 20, and 10 μM IP4. The HDAC6 assay employed buffer C, consisting of 20 mM HEPES, pH 8.0, 1 mM MgCl2, 137 mM NaCl, 2.7 mM KCl, 0.5 mM TCEP (Calbiochem) and 0.05% BSA. The HDAC8 assay employed buffer D, consisting of 20 mM HEPES, pH 8.0, 1 mM MgCl2, 100 mM NaCl, 20 mM KCl, 0.1% n-octyl-β-D-glucoside (Anatrace, Maumee, OH) and 0.05% BSA. All steps were performed at room temperature (23° C.). The assay was performed by pre-incubating serial dilutions of test compounds with the target HDAC prior to initiation with substrate. Each compound was titrated in a 10-point dose response, using a 1:3 fold dilution scheme, with 0.15 ul of solution added by ECHO555 to the plate, followed by the addition of 20 μl of the appropriate HDAC isoform diluted in appropriate assay buffer. […] Final conditions used for each assay were: 1. HDAC 1, 0.3 nM total enzyme, 20 μM substrate BML-K1104; 2. HDAC 2, 1.5 nM total enzyme, 40 μM substrate BML-K1104; 3. HDAC 3/SMRT, 0.3 nM total enzyme, 20 μM substrate BML-K1104; 4. HDAC 6, 1.3 nM total enzyme, 2.5 μM substrate BML-K1104; 5. HDAC 8, 1.3 nM total enzyme, 200 μM substrate BML-K1178; the final high dose of test compound was 30 μM. For potent compounds, 900 nM was used as the final high dose. The reactions were stopped and developed by addition of 30 ul of HDAC developer solution containing a saturating level of HDAC inhibitor as follows: 1.

SMILES strings stand for the structures.

As to `CCC(=O)CCCOC[C@H](NC(=O)[C@H]1CC12CCN(CC)CC2)c1ncc(-c2cc3ccccc3nc2OC)[nH]1` [Compound 7, (1S)-6-ethyl-N-{(1R)-1-[5-(2-methoxyquinolin-3-yl)-1H-imidazol-2-yl]-2-[(4-oxohexyl)oxy]ethyl}-6-azaspiro[2.5]octane-1-carboxamide], the IC50 turned out to be 19 µM.
With `COc1cc2nc(C)ccc2cc1-c1cnc([C@H](COCCCC(=O)c2cc(C)on2)NC(=O)C2CN(C)C2)[nH]1` [Compound 19, N-{(1R)-1-[5-(7-methoxy-2-methylquinolin-6-yl)-1H-imidazol-2-yl]-2-[4-(5-methylisoxazol-3-yl)-4-oxobutoxy]ethyl}-1-methylazetidine-3-carboxamide], the IC50 is 0.469 µM.

For the origin of these results see US12365674B2, “Inhibitors of histone deacetylase useful for the treatment or prevention of HIV infection” (Merck Sharp & Dohme LLC, priority 2019, dated 2025).
